In patent publication US8394848B2, “Compounds that modulate intracellular calcium” (Calcimedica, Inc., priority 2008, dated 2013):

System: JR251 or RBL cells
Assay: Store-operated calcium entry, either JR251 or RBL cells, or both
Assay type: cell-based
In short: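 Orai1/STIM1 stable cells: fluo-4-AM loaded, compound 30 min at RT in Ca2+-free HBSS, then CaCl2 added; IC50 from Peak-Basal FLIPR fluorescence. RBL-2H3 cells: compound 5 min, then thapsigargin (5.5× stock, 5.5 uM) 25 min, then calcium added; IC50 from Upslope (signal 7 s after calcium minus baseline).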

IC50, < 10 µM:
O=C(O)c1c(-c2ccc(Cl)cc2)csc1NC(=O)N1Cc2ccccc2C1 [4-(4-chlorophenyl)-2-(isoindoline-2-carboxamido)thiophene-3-carboxylic acid]
Cc1cccc2nc(C(=O)Nc3scc(-c4ccc(Cl)cc4)c3C(=O)O)cnc12 [4-(4-chlorophenyl)-2-(5-methylquinoxaline-2-carboxamido)thiophene-3-carboxylic acid]
O=C(Nc1scc(-c2ccc(Cl)c(F)c2F)c1C(=O)O)c1nc2ccccc2s1 [2-(benzo[d]thiazole-2-carboxamido)-4-(4-chloro-2,3-difluorophenyl)thiophene-3-carboxylic acid]
O=C(Nc1scc(-c2ccc(Cl)cc2)c1C(=O)O)c1cc2ccccc2nn1 [4-(4-chlorophenyl)-2-(cinnoline-3-carboxamido)thiophene-3-carboxylic acid]
O=C(CCc1cccc(Cl)c1)Nc1scc(-c2ccc(Cl)cc2)c1C(=O)O [4-(4-chlorophenyl)-2-(3-(3-chlorophenyl)propanamido)thiophene-3-carboxylic acid]
O=C(Nc1scc(-c2ccc(Cl)c(Cl)c2)c1C(=O)O)c1ccsc1 [4-(3,4-dichlorophenyl)-2-(thiophene-3-carboxamido)thiophene-3-carboxylic acid]
O=C(Nc1scc(-c2ccc(Cl)cc2)c1C(=O)O)c1nnc2ccccc2n1 [2-(benzo[e][1,2,4]triazine-3-carboxamido)-4-(4-chlorophenyl)thiophene-3-carboxylic acid]
Cc1ccc(-c2csc(NC(=O)c3nc4ccccc4o3)c2C(=O)O)cc1C [2-(benzo[d]oxazole-2-carboxamido)-4-(3,4-dimethylphenyl)thiophene-3-carboxylic acid]
O=C(NCc1ccccc1F)Nc1scc(-c2ccc(Cl)cc2)c1C(=O)O [4-(4-chlorophenyl)-2-(3-(2-fluorobenzyl)ureido)thiophene-3-carboxylic acid]
Cc1ccc(-c2csc(NC(=O)c3nc4cc(F)ccc4o3)c2C(=O)O)c(F)c1F [4-(2,3-difluoro-4-methylphenyl)-2-(5-fluorobenzo[d]oxazole-2-carboxamido)thiophene-3-carboxylic acid]
Cc1ccc(-c2csc(NC(=O)c3cc(-c4ccccc4)oc3C)c2C(=O)O)cc1 [2-(2-methyl-5-phenylfuran-3-carboxamido)-4-p-tolylthiophene-3-carboxylic acid]
COc1cccc(C(=O)Nc2scc(-c3ccc(Cl)cc3)c2C(=O)O)n1 [4-(4-chlorophenyl)-2-(6-methoxypicolinamido)thiophene-3-carboxylic acid]
Cc1nn(C)c2sc(C(=O)Nc3scc(-c4ccc(Br)cc4)c3C(=O)O)cc12 [4-(4-bromophenyl)-2-(1,3-dimethyl-1H-thieno[2,3-c]pyrazole-5-carboxamido)thiophene-3-carboxylic acid]
N#C/C(=C\c1ccccc1)C(=O)Nc1scc(-c2ccc(Cl)cc2)c1C(=O)O [(E)-4-(4-chlorophenyl)-2-(2-cyano-3-phenylacrylamido)thiophene-3-carboxylic acid]
O=C(Nc1scc(-c2cc3cccc(O)c3o2)c1C(=O)O)c1ccc2nnsc2c1 [2-(benzo[d][1,2,3]thiadiazole-6-carboxamido)-4-(7-hydroxybenzofuran-2-yl)thiophene-3-carboxylic acid]
O=C(Nc1scc(-c2ccc(Cl)cc2)c1C(=O)O)c1ccc2nnsc2c1 [2-(benzo[d][1,2,3]thiadiazole-6-carboxamido)-4-(4-chlorophenyl)thiophene-3-carboxylic acid]
O=C(Nc1scc(-c2ccc(Br)cc2)c1C(=O)O)c1nc2cc(Cl)ccc2o1 [4-(4-bromophenyl)-2-(5-chlorobenzo[d]oxazole-2-carboxamido)thiophene-3-carboxylic acid]
Cc1ccc(-c2csc(NC(=O)c3nc4ccccc4s3)c2C(=O)O)cc1 [2-(benzo[d]thiazole-2-carboxamido)-4-p-tolylthiophene-3-carboxylic acid]
Cc1ccc(-c2csc(NC(=O)c3nc4ccc(F)cc4o3)c2C(=O)O)c(F)c1F [4-(2,3-difluoro-4-methylphenyl)-2-(6-fluorobenzo[d]oxazole-2-carboxamido)thiophene-3-carboxylic acid]
O=C(Nc1scc(-c2ccc(F)c(F)c2F)c1C(=O)O)c1nc2ccccc2o1 [2-(benzo[d]oxazole-2-carboxamido)-4-(2,3,4-trifluorophenyl)thiophene-3-carboxylic acid]
Cc1ccc(-c2csc(NC(=O)c3cc4c(C)nn(C)c4s3)c2C(=O)O)cc1 [2-(1,3-dimethyl-1H-thieno[2,3-c]pyrazole-5-carboxamido)-4-p-tolylthiophene-3-carboxylic acid]
O=C(COc1ccccc1)Nc1scc(-c2ccc(Cl)cc2)c1C(=O)O [4-(4-chlorophenyl)-2-(2-phenoxyacetamido)thiophene-3-carboxylic acid]
COc1cc(C)c(-c2csc(NC(=O)c3cc4ccccc4o3)c2C(=O)O)cc1C [2-(benzofuran-2-carboxamido)-4-(4-methoxy-2,5-dimethylphenyl)thiophene-3-carboxylic acid]
COc1cccc(C(=O)Nc2scc(-c3ccc(Br)cc3)c2C(=O)O)n1 [4-(4-bromophenyl)-2-(6-methoxypicolinamido)thiophene-3-carboxylic acid]
CC(C(=O)Nc1scc(-c2ccc(Br)cc2)c1C(=O)O)C(C)c1ccccc1 (stereo not drawn) [4-(4-bromophenyl)-2-(2-methyl-3-phenylbutanamido)thiophene-3-carboxylic acid]
Cc1cc(-c2csc(NC(=O)c3cc4ccccc4o3)c2C(=O)O)c(C)cc1F [2-(benzofuran-2-carboxamido)-4-(4-fluoro-2,5-dimethylphenyl)thiophene-3-carboxylic acid]
O=C(O)c1c(-c2ccc(Br)cc2)csc1NC(=O)C(F)Cc1ccccc1Cl (stereo not drawn) [4-(4-bromophenyl)-2-(3-(2-chlorophenyl)-2-fluoropropanamido)thiophene-3-carboxylic acid]
O=C(CCc1ccccc1)Nc1scc(-c2ccc(Br)cc2)c1C(=O)O [4-(4-bromophenyl)-2-(3-phenylpropanamido)thiophene-3-carboxylic acid]
Cc1cccc2ncc(C(=O)Nc3scc(-c4ccc(Cl)cc4)c3C(=O)O)nc12 [4-(4-chlorophenyl)-2-(8-methylquinoxaline-2-carboxamido)thiophene-3-carboxylic acid]
O=C(O)c1c(-c2ccc(Cl)cc2)csc1NC(=O)C(Cl)Cc1ccccc1Cl (stereo not drawn) [2-(2-chloro-3-(2-chlorophenyl)propanamido)-4-(4-chlorophenyl)thiophene-3-carboxylic acid]
